The record followed here is ChEMBL document CHEMBL1137823, “Building predictive models for protein tyrosine phosphatase 1B inhibitors based on discriminating structural features by reassembling medicinal chemistry building blocks” (J Med Chem, 2004).

For this experiment, the target named is T1, Tyrosine-protein phosphatase non-receptor type 1 (Homo sapiens, UniProt P18031).
T1 sequence (P18031 whole entry): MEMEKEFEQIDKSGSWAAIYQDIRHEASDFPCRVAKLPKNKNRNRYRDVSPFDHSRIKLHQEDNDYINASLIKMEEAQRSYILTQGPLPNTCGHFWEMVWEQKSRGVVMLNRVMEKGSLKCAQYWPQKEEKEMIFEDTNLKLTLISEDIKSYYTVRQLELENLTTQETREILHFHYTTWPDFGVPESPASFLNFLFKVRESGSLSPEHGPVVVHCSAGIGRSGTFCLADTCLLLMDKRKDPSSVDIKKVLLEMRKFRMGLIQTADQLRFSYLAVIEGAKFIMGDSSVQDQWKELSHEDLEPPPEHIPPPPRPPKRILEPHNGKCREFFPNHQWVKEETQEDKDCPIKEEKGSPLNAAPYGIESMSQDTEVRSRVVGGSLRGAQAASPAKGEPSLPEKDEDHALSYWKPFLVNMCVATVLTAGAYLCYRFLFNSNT
Briefly: Concentration required for 50% inhibition of tyrosine phosphatase 1B.

The structures appear in SMILES notation. pIC50: −log10 of the molar value.

In turn, `CCCC[C@@H](Oc1c(Br)cc(-c2ccc(-c3c(Cc4ccccc4)oc4ccccc34)cc2)cc1Br)C(=O)O` showed a pIC50 of 7.28.

Molecule `O=C(O)[C@@H](Cc1ccccc1)Oc1ccc(-c2ccc(-c3nc4ccccc4n3Cc3ccccc3)cc2)cc1` had a pIC50 of 6.36.

In the case of `O=C(O)[C@@H](Cc1ccccc1)Oc1ccc(-c2ccc(-c3nc4cccnc4n3Cc3ccccc3)cc2)cc1`, the pIC50 was 6.67.

Regarding `O=C(O)[C@H](Cc1ccccc1)Oc1ccc(-c2ccc(-c3c(Cc4ccc(F)cc4)oc4ccccc34)cc2)cc1`, the pIC50 is 6.22.

For `COC(=O)[C@H](Cc1ccccc1)Oc1ccc(-c2ccc(-c3c(Cc4ccccc4)oc4ccccc34)cc2)cc1`, the pIC50 was 6.23.

For the molecule `CCCCc1oc2ccccc2c1-c1ccc(-c2ccc(OC)cc2)cc1`, the pIC50 is 6.78.

In turn, `Cc1oc(-c2ccc(C(F)(F)F)cc2)nc1-c1ccc2c(Br)c(OC(Cc3ccccc3)C(=O)O)ccc2c1` (stereo unspecified) gave a pIC50 of 6.72.

`CCc1oc2ccccc2c1-c1ccc(-c2ccc(O)cc2)cc1` had a pIC50 of 7.50.

Take `Cc1cc(-c2ccc(-c3c(Cc4ccccc4)oc4ccccc34)cc2)cc(C)c1OS(=O)(=O)c1ccc(C(=O)O)c(O)c1`: the pIC50 is 7.41.

Regarding `CCCCc1oc2ccccc2c1C(=O)c1ccc2cc(O)ccc2c1`, the pIC50 was 8.50.

Regarding `O=C(O)C(Cc1ccccc1)Oc1ccc(-c2ccc(-c3coc4ccccc34)cc2)cc1` (stereo unspecified), the pIC50 was 6.54.

`CCCCc1oc2ccccc2c1C(O)c1ccc2cc(O)ccc2c1` (stereo unspecified) had a pIC50 of 6.04. This pIC50 is 0.50 log units lower than that of the molecule before.

As to `Oc1ccc(-c2ccc(-c3coc4ccccc34)cc2)cc1`, the pIC50 was 7.70. Against the preceding molecule, the pIC50 is 1.66 log units higher.

Turning to `Cc1oc(-c2ccc(C(F)(F)F)cc2)nc1-c1cccc(-c2ccc(OCC(=O)O)cc2)c1`, the pIC50 is 7.20. This pIC50 is 0.50 log units lower than that of the molecule before.

The molecule `Cc1oc(-c2ccc(C(F)(F)F)cc2)nc1-c1ccc(-c2ccc(O)cc2)cc1` had a pIC50 of 7.90.

In the case of `CCCCc1oc2ccccc2c1C(=O)c1ccc(-c2ccc(O)cc2)cc1`, the pIC50 was 8.40.

Take `Oc1ccc(-c2ccc(-c3c(Cc4ccccc4)oc4ccccc34)cc2)cc1Br`: the pIC50 was 6.56.

`Cc1oc(-c2ccc(C(F)(F)F)cc2)nc1-c1cccc(-c2ccc(O)cc2)c1` showed a pIC50 of 8.00.

Turning to `O=C(O)C(Cc1ccccc1)Oc1ccc(-c2ccc(-c3c(Br)oc4ccccc34)cc2)cc1` (stereo unspecified), the pIC50 was 6.39.

With `Oc1c(Br)cc(-c2ccc(-c3c(Cc4ccccc4)oc4ccccc34)cc2)cc1Br`, the pIC50 is 6.32.

As to `O=C(O)[C@H](Cc1ccccc1)Oc1ccc(-c2ccc(-c3c(Cc4ccccc4)sc4ccccc34)cc2)cc1-c1ccc(Cl)cc1`, the pIC50 is 7.28.

In the case of `CCCc1cc(-c2ccc(-c3c(Cc4ccccc4)oc4ccccc34)cc2)ccc1O[C@@H](Cc1ccccc1)C(=O)O`, the pIC50 is 6.08.

As for `O=C(O)[C@@H](Cc1ccccc1)Oc1c(Br)cc(-c2ccc(-c3c(Cc4ccccc4)oc4ccccc34)cc2)cc1Br`, the pIC50 is 7.42.

`CCCCc1oc2ccccc2c1Cc1ccc2ccc(O)cc2c1` gave a pIC50 of 6.11.

With `CCCCc1oc2ccccc2c1C(O)c1ccc2ccc(OCn3cnnn3)c(Br)c2c1` (stereo unspecified), the pIC50 is 6.04.

The molecule `O=C(O)c1ccc(S(=O)(=O)Oc2ccc(-c3ccc(-c4c(Cc5ccccc5)oc5ccccc45)cc3)cc2[N+](=O)[O-])cc1O` had a pIC50 of 7.40.
